Several values for one entry are separate records, joined by “and”; a condition that tells them apart may be missing. Equal values may be shown once.
test system: not listed separately; test: Polydispersity index (PDI) of the lipid nanoparticle (dynamic light scattering); format: physicochemical; conditions: Table 4; FVII siRNA LNP; Chol/DSPC/stealth lipid PEG-DMG, 45/44/9/2
Text: The lipid nanoparticles (LNPs) were formed by mixing equal volumes of lipids dissolved in alcohol with siRNA dissolved in a citrate buffer by an impinging jet process. […] The siRNA to total lipid ratio is approximately 0.05 (wt/wt). Where a LNP formulation contains four lipid components, the molar ratios correspond to the type of lipid as it appears in the first four columns of the table, in the order that they appear. The ratio of the lipids ranges from 20 to 70 mole percent for the cationic lipid with a target of 40-60, the mole percent of helper lipid ranges from 20 to 70 with a target of 30 to 50, the mole percent of neutral lipid ranges from 0-30, the mole percent of PEG lipid has a range from 1 to 6 with a target of 2 to 5. The concentration of siRNA solution ranges from 0.7 to 1.0 mg/mL with a target of 0.8 to 0.9 mg/mL in a sodium citrate: sodium chloride buffer pH 4-6, with a target of 4.5-5.5. The LNPs are formed by mixing equal volumes of lipid solution in ethanol with siRNA dissolved in a citrate buffer by an impinging jet process through a mixing device with ID ranging from 0.25 to 2.0 mm at a flow rate from 10 to 640 mL/min. The mixed LNP solution is held at room temperature for 0-24 hrs prior to a dilution step. […] The final product is sterile filtered and stored at 4° C. Unless indicated otherwise, all PDIs referred to herein are the PDI of the fully formed nanoparticle, as measured by dynamic light scattering on a Malvern Zetasizer. The nanoparticle sample was diluted in phosphate buffered saline (PBS) so that the count rate was approximately 200-400 kcts. The data is presented in Tables 4 and 5 as a weighted average of the intensity measure.

Compound	PDI
CCCCCCCC/C=C\CCCCCCCCOc1cc(CN(C)C)cc(OCCCCCCCC/C=C\CCCCCCCC)c1 [Example 1]	0.05
CCCCC/C=C\C/C=C\CCCCCCCCOc1cc(CN(C)C)cc(OCCCCCCCC/C=C\C/C=C\CCCCC)c1 [Example 2]	0.04
CCCCC/C=C\C/C=C\CCCCCCCC(=O)OCc1cc(COC(=O)CCCCCCC/C=C\C/C=C\CCCCC)cc(CN(C)C)c1 [Example 33]	0.06
CCCCCCCCCCCCC(=O)OCc1cc(COC(=O)CCCCCCCCCCCC)cc(CN(C)C)c1 [Example 34]	0.06
CCCCC/C=C\C/C=C\CCCCCCCC(=O)OCCOc1cc(CN(C)C)cc(OCCOC(=O)CCCCCCC/C=C\C/C=C\CCCCC)c1 [Example 40]	0.02

same assay, conditions: Table 4; FVII siRNA LNP; Chol/DSPC/stealth lipid S010, 45/44/9/2

Compound	PDI
CCCCC/C=C\C/C=C\CCCCCCCCOc1cc(CN(C)C)cc(OCCCCCCCC/C=C\C/C=C\CCCCC)c1 [Example 2]	0.067
CCCCC/C=C\C/C=C\CCCCCCCCOc1cc(COC(=O)CCN(C)C)cc(OCCCCCCCC/C=C\C/C=C\CCCCC)c1 [Example 14]	0.059
CCCCC/C=C\C/C=C\CCCCCCCCOc1cc(COC(=O)CCN(C)C)cc(OCCCCCCCC/C=C\C/C=C\CCCCC)n1 [Example 31]	0.049
CCCCC/C=C\C/C=C\CCCCCCCC(=O)OCc1cc(COC(=O)CCCCCCC/C=C\C/C=C\CCCCC)cc(CN(C)C)c1 [Example 33]	0.042
CCCCCCCCCCCCC(=O)OCc1cc(COC(=O)CCCCCCCCCCCC)cc(CN(C)C)c1 [Example 34]	0.036
CCCCC/C=C\C/C=C\CCCCCCCC(=O)OCCOc1cc(CN(C)C)cc(OCCOC(=O)CCCCCCC/C=C\C/C=C\CCCCC)c1 [Example 40]	0.062
CCCCCC(=O)OCCCCCCCCOc1cc(CN(C)C)cc(OCCCCCCCCOC(=O)CCCCC)c1 [Example 41]	0.119
CCCCCC(=O)OCCCCCCCCCCOc1cc(CN(C)C)cc(OCCCCCCCCCCOC(=O)CCCCC)c1 [Example 44]	0.077

same assay, conditions: Table 5; PLK1-424 siRNA LNP; stealth lipid S011, 45/44/9/2

Compound	PDI
CCCCC/C=C\C/C=C\CCCCCCCCOc1cc(CN(C)C)cc(OCCCCCCCC/C=C\C/C=C\CCCCC)c1 [Example 2]	0.1

test system: respiratory syncytial virus F protein; test: Immunization studies: anti-RSV-F titers after liposome-delivered vA317 self-replicating RNA; format: in vivo; conditions: BALB/c mice; Course A = days 0 & 21; 2 weeks after first dose; liposomes with 0.1 μg vA317 replicon (naked control 1 μg)
Description: BALB/c were immunized with liposomes comprising DSPC, cholesterol, and various lipids of the invention (or, for comparison, the cationic lipid 1,2-dilinoleyloxy-N,N-dimethyl-3-aminopropane or ‘DLinDMA’). The liposomes encapsulated 0.1 μg of “vA317” self-replicating RNA replicon which encodes respiratory syncytial virus F protein (see WO2012/031043). […] Doses were given either on days 0 & 21 or days 0 & 42. Immune responses were assessed 2 weeks after each dose (2wp1, 2wp2), and in some cases also at 4 weeks after the second dose (4wp2). Four series of experiments were performed, each with its own naked control.

Compound	anti-RSV-F titer 2wp1 pool 1	anti-RSV-F titer 2wp1 pool 2
CCCCC/C=C\C/C=C\CCCCCCCCOc1cc(CN(C)C)cc(OCCCCCCCC/C=C\C/C=C\CCCCC)c1 [Example 2]	217	259

same assay, conditions: BALB/c mice; Course A = days 0 & 21; 2 weeks after second dose; liposomes with 0.1 μg vA317 replicon (naked control 1 μg)

Compound	anti-RSV-F titer 2wp2 pool 1	anti-RSV-F titer 2wp2 pool 2
CCCCC/C=C\C/C=C\CCCCCCCCOc1cc(CN(C)C)cc(OCCCCCCCC/C=C\C/C=C\CCCCC)c1 [Example 2]	12785	8232

same assay, conditions: BALB/c mice; Course A = days 0 & 21; 4 weeks after second dose; liposomes with 0.1 μg vA317 replicon (naked control 1 μg)

Compound	anti-RSV-F titer 4wp2 pool 1	anti-RSV-F titer 4wp2 pool 2
CCCCC/C=C\C/C=C\CCCCCCCCOc1cc(COC(=O)CCN(C)C)cc(OCCCCCCCC/C=C\C/C=C\CCCCC)c1 [Example 14]	13687 and 21375	18851 and 21347

test system: not listed separately; test: Particle size of the lipid nanoparticle (dynamic light scattering, Malvern Zetasizer); format: physicochemical; conditions: Table 4; FVII siRNA LNP; Chol/DSPC/stealth lipid PEG-DMG, molar ratio 45/44/9/2; Z-average
Text: The lipid nanoparticles have a size of about 1 to about 2,500 nm, about 1 to about 1,500 nm, about 1 to about 1,000 nm, in a sub-embodiment about 50 to about 600 nm, in a sub-embodiment about 50 to about 400 nm, in a sub-embodiment about 50 to about 250 nm, and in a sub-embodiment about 50 to about 150 nm. Unless indicated otherwise, all sizes referred to herein are the average sizes (diameters) of the fully formed nanoparticle, as measured by dynamic light scattering on a Malvern Zetasizer. The nanoparticle sample is diluted in phosphate buffered saline (PBS) so that the count rate is approximately 200-400 kcts. The data is presented as a weighted average of the intensity measure. The lipid nanoparticles (LNPs) were formed by mixing equal volumes of lipids dissolved in alcohol with siRNA dissolved in a citrate buffer by an impinging jet process. […] The siRNA to total lipid ratio is approximately 0.05 (wt/wt). Where a LNP formulation contains four lipid components, the molar ratios correspond to the type of lipid as it appears in the first four columns of the table, in the order that they appear. The ratio of the lipids ranges from 20 to 70 mole percent for the cationic lipid with a target of 40-60, the mole percent of helper lipid ranges from 20 to 70 with a target of 30 to 50, the mole percent of neutral lipid ranges from 0-30, the mole percent of PEG lipid has a range from 1 to 6 with a target of 2 to 5. The concentration of siRNA solution ranges from 0.7 to 1.0 mg/mL with a target of 0.8 to 0.9 mg/mL in a sodium citrate: sodium chloride buffer pH 4-6, with a target of 4.5-5.5. The LNPs are formed by mixing equal volumes of lipid solution in ethanol with siRNA dissolved in a citrate buffer by an impinging jet process through a mixing device with ID ranging from 0.25 to 2.0 mm at a flow rate from 10 to 640 mL/min. The mixed LNP solution is held at room temperature for 0-24 hrs prior to a dilution step. […] The final product is sterile filtered and stored at 4° C. Unless indicated otherwise, all particle size measurements referred to in Tables 4 and 5 are the Z-average particle size of the fully formed nanoparticle, as measured by dynamic light scattering on a Malvern Zetasizer. The nanoparticle sample was diluted in phosphate buffered saline (PBS) so that the count rate is approximately 200-400 kcts.

Compound	Size (nm)
CCCCC/C=C\C/C=C\CCCCCCCC(=O)OCc1cc(COC(=O)CCCCCCC/C=C\C/C=C\CCCCC)cc(CN(C)C)c1 [Example 33]	107.8
CCCCCCCCCCCCC(=O)OCc1cc(COC(=O)CCCCCCCCCCCC)cc(CN(C)C)c1 [Example 34]	126.0
CCCCC/C=C\C/C=C\CCCCCCCC(=O)OCCOc1cc(CN(C)C)cc(OCCOC(=O)CCCCCCC/C=C\C/C=C\CCCCC)c1 [Example 40]	110.9

same assay, conditions: Table 4; FVII siRNA LNP; Chol/DSPC/stealth lipid S010, molar ratio 45/44/9/2; Z-average

Compound	Size (nm)
CCCCC/C=C\C/C=C\CCCCCCCC(=O)OCc1cc(COC(=O)CCCCCCC/C=C\C/C=C\CCCCC)cc(CN(C)C)c1 [Example 33]	79.15
CCCCCCCCCCCCC(=O)OCc1cc(COC(=O)CCCCCCCCCCCC)cc(CN(C)C)c1 [Example 34]	113.8
CCCCC/C=C\C/C=C\CCCCCCCC(=O)OCCOc1cc(CN(C)C)cc(OCCOC(=O)CCCCCCC/C=C\C/C=C\CCCCC)c1 [Example 40]	94.28
CCCCCC(=O)OCCCCCCCCOc1cc(CN(C)C)cc(OCCCCCCCCOC(=O)CCCCC)c1 [Example 41]	170.7
CCCCCC(=O)OCCCCCCCCCCOc1cc(CN(C)C)cc(OCCCCCCCCCCOC(=O)CCCCC)c1 [Example 44]	172.9

test system: not listed separately; test: pKa measurement of the cationic lipid (TNS fluorescence vs pH); format: physicochemical; conditions: probe TNS (fluorescent probe), Table 4; pKa of the cationic lipid of formula (I)
Description: Unless indicated otherwise, all pKa's referred to herein were measured at standard temperature and pressure. Also, unless otherwise indicated, all references to pKa are references to pKa measured using the following technique. 2 mM solution of lipid in ethanol was prepared by weighing the lipid and then dissolving it in ethanol. 0.3 mM solution of fluorescent probe TNS in ethanol:methanol 9:1 was prepared by first making 3 mM solution of TNS in methanol and then diluting to 0.3 mM with ethanol. An aqueous buffer containing 200 mM sodium phosphate dibasic and 100 mM citric acid was prepared. […] Using the Hamilton Microlab Star high throughput liquid handler and Hamilton run control software Software, 7.5 uL of probe/lipid mix were added to 242.5 uL of buffer in a 1 mL 96 well plate (model NUNC 260252, […] Nunc International). This was done with all twelve buffers. After mixing in 1 mL 96 well plate, 100 uL of each probe/lipid/buffer mixture was transferred to a 250 uL black with clear bottom 96 well plate (model COSTAR 3904, Corning). The fluorescence measurements are carried out on the SpectraMax M5 spectrophotometer using software SoftMax pro 5.2 and following parameters: After the measurement, the background fluorescence value of an empty well on the 96 well plate was subtracted from each probe/lipid/buffer mixture. The fluorescence intensity values were then normalized to the value at lowest pH. The normalized fluorescence intensity vs. pH chart was then plotted in the Microsoft Excel software. The twelve points were connected with a smooth line. The point on the line at which the normalized fluorescence intensity was equal to 0.5 was found. […] The pKa determined using this method is precise to about 0.1 pKa units.

Compound	pKa
CCCCCCCC/C=C\CCCCCCCCOc1cc(CN(C)C)cc(OCCCCCCCC/C=C\CCCCCCCC)c1 [Example 1]	5.59
CCCCC/C=C\C/C=C\CCCCCCCCOc1cc(CN(C)C)cc(OCCCCCCCC/C=C\C/C=C\CCCCC)c1 [Example 2]	5.57
CCCCC/C=C\C/C=C\CCCCCCCCOc1cc(COC(=O)CCN(C)C)cc(OCCCCCCCC/C=C\C/C=C\CCCCC)c1 [Example 14]	6.11
CCCCC/C=C\C/C=C\CCCCCCCCOc1cc(COC(=O)CCN(C)C)cc(OCCCCCCCC/C=C\C/C=C\CCCCC)n1 [Example 31]	6.01
CCCCC/C=C\C/C=C\CCCCCCCC(=O)OCc1cc(COC(=O)CCCCCCC/C=C\C/C=C\CCCCC)cc(CN(C)C)c1 [Example 33]	5.85
CCCCCCCCCCCCC(=O)OCc1cc(COC(=O)CCCCCCCCCCCC)cc(CN(C)C)c1 [Example 34]	5.95
CCCCC/C=C\C/C=C\CCCCCCCC(=O)OCCOc1cc(CN(C)C)cc(OCCOC(=O)CCCCCCC/C=C\C/C=C\CCCCC)c1 [Example 40]	6.17
CCCCCC(=O)OCCCCCCCCOc1cc(CN(C)C)cc(OCCCCCCCCOC(=O)CCCCC)c1 [Example 41]	5.83
CCCCCC(=O)OCCCCCCCCCCOc1cc(CN(C)C)cc(OCCCCCCCCCCOC(=O)CCCCC)c1 [Example 44]	5.66

same assay, conditions: probe TNS (fluorescent probe), Table 5; pKa of the cationic lipid of formula (I)

Compound	pKa
CCCCCCCC/C=C\CCCCCCCCOc1cc(CN(C)C)cc(OCCCCCCCC/C=C\CCCCCCCC)c1 [Example 1]	5.59
CCCCC/C=C\C/C=C\CCCCCCCCOc1cc(CN(C)C)cc(OCCCCCCCC/C=C\C/C=C\CCCCC)c1 [Example 2]	5.57

Reference: patent publication US9504747B2, “Lipids and lipid compositions for the delivery of active agents” (Novartis AG, priority 2013, dated 2016)
